Reference: US10227298B2, “Solid forms of a pharmaceutically active compound” (Hoffmann-La Roche Inc., priority 2014, dated 2019)

Assay: aqueous solubility of the crystalline forms
Type: physicochemical
Conditions: pH 1.5, aqueous buffer, in water at physiological pHs (pH1.5-8.0)

COc1cc(C(=O)O)ccc1NC(=O)[C@@H]1N[C@@H](CC(C)(C)C)[C@](C#N)(c2ccc(Cl)cc2F)[C@H]1c1cccc(Cl)c1F [Compound A, 4-{[(2R,3S,4R,5S)-4-(4-Chloro-2-fluoro-phenyl)-3-(3-chloro-2-fluoro-phenyl)-4-cyano-5-(2,2-dimethyl-propyl)-pyrrolidine-2-carbonyl]-amino}-3-methoxy-benzoic acid]
solubility: < 0.05 µg/mL
